Test in all cases: combination Emax (second highest fraction inhibited in the dose matrix, 72 h); higher = more inhibition; extreme values may be limits of the assay
The test system of experiment [1] is HuH-7 (Hepatocellular Carcinoma). The gist of the method:
(§1)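 Cell lines grown in DMEM/F12 or RPMI with 10% FBS were plated in 1536-well plates and held 24 hours at 37°C, 5% CO2 before 72 hours of exposure to two-drug dose matrices, with DMSO typically at 0.2%. CellTiter-Glo 2.0 luminescence gave viability, which was converted to inhibition. Vehicle wells were set to 0 and blank wells to 1. Combination Emax is the second-highest inhibition in the matrix, and Bliss excess is the observed combination effect minus the expected EA + EB − EA·EB, where EA and EB are the single-agent effects.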

In experiment [2] the test system is OVCAR-5 (Ovarian Carcinoma). The essentials: as §1
Experiment [3] concerns MPP-89 (Mesothelioma). The gist of the method: as §1
Experiment [4] concerns SNU-449 (Hepatocellular Carcinoma). The essentials:
as §1

For experiment [5], the system named is SNU-16 (Gastric Carcinoma). The gist of the method: as §1
Experiment [6] has as its system NCI-H524 (Small Cell Lung Carcinoma). The essentials:
as §1

In experiment [7] the test system is BE2-M17 (Neuroblastoma). The essentials: as §1
Experiment [8] concerns BPH-1 (Non-Cancerous). The essentials: as §1
Experiment [9] has as its system FTC-133 (Thyroid Gland Carcinoma). The essentials:
as §1

Experiment [10] concerns HeLa (Cervical Carcinoma). The gist of the method:
as §1

Experiment [11] relates to OV-56 (Ovarian Carcinoma). The essentials: as §1
Experiment [12] has as its system NCI-H2722 (Mesothelioma). The essentials:
as §1

In experiment [13] the test system is CAL-33 (Oral Cavity Carcinoma). The gist of the method: as §1
Experiment [14] has as its system LNZTA3WT4 (Low Grade Glioma). The essentials:
as §1

Experiment [15] has as its system SW1573 (Lung Adenocarcinoma). The gist of the method: as §1
The subject of experiment [16] is NCI-H1568 (Lung Adenocarcinoma). The gist of the method:
as §1

Experiment [17] deals with Detroit562 (Head and Neck Carcinoma). The gist of the method:
as §1

For experiment [18], the system named is MHH-CALL-2 (B-Lymphoblastic Leukemia). The gist of the method:
as §1

The test system of experiment [19] is LOXIMVI (Melanoma). The essentials:
as §1

In experiment [20] the test system is HH (T-Cell Non-Hodgkin's Lymphoma). The gist of the method: as §1

`NC1(C(=O)N[C@@H](CCO)c2ccc(Cl)cc2)CCN(c2ncnc3[nH]ccc23)CC1` [Capivasertib] + CC(=O)c1c(C)c2cnc(Nc3ccc(N4CCNCC4)cn3)nc2n(C2CCCC2)c1=O [Palbociclib] (first compound max 10 µM, 7x7, partner max 10 µM): the “combination Emax” value in experiment [1] came out at 0.23; in [2], 0.455; in [3] it was 0.382; in [4], 0.379; in [5] it was 0.623; in experiment [6], 0.666. Also, the “combination Emax” value in experiment [7] was 0.463; in experiment [8], 0.518; in experiment [9], 0.565; in experiment [10], 0.196; in [11] it was 0.41; in experiment [12], 0.326. In addition, the “combination Emax” value amounted to 0.499 in experiment [13]; 0.562 in experiment [14]; 0.382 in [15]; 0.357 in experiment [16]; 0.783 in [17]; 0.216 in [18]. For the same compound, the “combination Emax” value is 0.688 in [19] and 0.426 in [20].

`NC1(C(=O)N[C@@H](CCO)c2ccc(Cl)cc2)CCN(c2ncnc3[nH]ccc23)CC1` [Capivasertib] + CC(C)n1c(=O)n(C)c2cnc3cc(F)c(-c4ccc(OCCCN5CCCCC5)nc4)cc3c21 [AZD1390] (first compound max 10 µM, 7x7, partner max 0.3 µM): the “combination Emax” value came to 0.156 in experiment [1]; 0.32 in experiment [2]; 0.439 in experiment [3]; 0.174 in experiment [4]; 0.225 in experiment [5]; 0.343 in experiment [6]. The “combination Emax” value in experiment [7] came out at 0.177; in experiment [8], 0.459; in experiment [9] it was 0.582; in experiment [10], 0.199; in experiment [11], 0.209; in experiment [12] it was 0.34. Also, the “combination Emax” value in [13] was found to be 0.478; in experiment [14], 0.372; in experiment [15], 0.235; in [16] it was 0.163; in [17], 0.599; in [18] it was 0.231. Moreover, the “combination Emax” value in [19] amounted to 0.401; in experiment [20], 0.256.

Regarding `NC1(C(=O)N[C@@H](CCO)c2ccc(Cl)cc2)CCN(c2ncnc3[nH]ccc23)CC1` [Capivasertib] + CCN(CCO)CCCOc1ccc2c(Nc3cc(CC(=O)Nc4cccc(F)c4)[nH]n3)ncnc2c1 [AZD2811] (first compound max 10 µM, 7x7, partner max 1 µM), the “combination Emax” value in experiment [1] worked out at 0.225; in experiment [2] it was 0.401; in [3] it was 0.435; in experiment [4], 0.187; in [5], 0.663; in experiment [6], 0.992. The “combination Emax” value in [7] came to 0.493; in [8] it was 0.587; in experiment [9] it was 0.643; in experiment [10], 0.23; in experiment [11] it was 0.249; in experiment [12] it was 0.515. The “combination Emax” value in [13] came to 0.897; in experiment [14], 0.475; in experiment [15] it was 0.374; in [16], 0.22; in experiment [17], 0.892; in experiment [18], 0.532. The “combination Emax” value in experiment [19] amounted to 0.517; in experiment [20], 0.281.

Turning to `NC1(C(=O)N[C@@H](CCO)c2ccc(Cl)cc2)CCN(c2ncnc3[nH]ccc23)CC1` [Capivasertib] + COc1nnc2ccc(N3CCC(c4ccc(OCCN5CCN(C)C(=O)[C@H]5C)cc4)CC3)nn12 [AZD5153] (first compound max 10 µM, 7x7, partner max 1 µM), the “combination Emax” value in [1] stood at 0.518; in experiment [2] it was 0.624; in experiment [3] it was 0.495; in [4] it was 0.224; in [5] it was 0.854; in experiment [6], 0.667. Further, the “combination Emax” value in experiment [7] is 0.696; in [8], 0.691; in [9], 0.73; in experiment [10] it was 0.423; in [11], 0.41; in experiment [12] it was 0.473. For the same compound, the “combination Emax” value worked out at 0.749 in experiment [13]; 0.57 in [14]; 0.409 in experiment [15]; 0.305 in experiment [16]; 0.925 in [17]; 0.338 in experiment [18]. Moreover, the figures for the “combination Emax” value in experiment [19] and in experiment [20] were 0.952 and 0.439, respectively.

Take `NC1(C(=O)N[C@@H](CCO)c2ccc(Cl)cc2)CCN(c2ncnc3[nH]ccc23)CC1` [Capivasertib] + C[C@@H]1COCCN1C2=NC(=NC(=C2)C3(CC3)[S@](=N)(=O)C)C4=C5C=CNC5=NC=C4 [AZD6738] (first compound max 10 µM, 7x7, partner max 10 µM): the “combination Emax” value in experiment [1] worked out at 0.453; in [2], 0.742; in [3], 0.545; in experiment [4], 0.262; in experiment [5] it was 0.973; in [6] it was 0.712. The “combination Emax” value is 0.702 in [7]; 0.574 in experiment [8]; 0.802 in [9]; 0.518 in experiment [10]; 0.542 in experiment [11]; 0.533 in experiment [12]. The “combination Emax” value in experiment [13] was 0.918; in experiment [14], 0.79; in experiment [15], 0.461; in experiment [16] it was 0.664; in [17], 0.918; in experiment [18] it was 0.954. Further, the “combination Emax” value in experiment [19] was determined as 0.779; in experiment [20], 0.349.

As for `NC1(C(=O)N[C@@H](CCO)c2ccc(Cl)cc2)CCN(c2ncnc3[nH]ccc23)CC1` [Capivasertib] + Cn1cnc2c(F)c(Nc3ccc(Br)cc3Cl)c(C(=O)NOCCO)cc21 [Selumetinib] (first compound max 10 µM, 7x7, partner max 10 µM), the “combination Emax” value in [1] is 0.45; in experiment [2], 0.69; in experiment [3], 0.386; in [4], 0.205; in experiment [5] it was 0.461; in experiment [6], 0.303. The “combination Emax” value in experiment [7] was found to be 0.654; in [8], 0.716; in experiment [9] it was 0.608; in experiment [10], 0.253; in [11] it was 0.398; in [12], 0.336. Further, the “combination Emax” value was 0.789 in [13]; 0.445 in experiment [14]; 0.362 in experiment [15]; 0.229 in experiment [16]; 0.798 in experiment [17]; 0.582 in experiment [18]. The “combination Emax” value came to 0.782 in [19] and 0.246 in [20].

Source of the values: the supplement of paper PMC11061612.
